This is an account of results in patent EP4631940A1, “COMPOUND TARGETING PAN-KRAS PROTEIN DEGRADATION AGENT AND USE THEREOF” (Betta Pharmaceuticals Co., Ltd., priority 2022, dated 2024).

The target of data set [1] is T1, KRAS G12D (Homo sapiens, UniProt P01116, G12D).
A short description of data set [2]: Phase II metabolic stability in liver microsomes (UDPGA). In kind it is in vitro ADME, Human. To be noted: for 60 minutes remaining percentage % Human: 0.5 mg/mL liver microsomes, Alamethicin; for metabolism by UGT in human liver microsomes: 60 min. The method, then:
(§1) Example 6 Study on Phase II Metabolic Stability of Compounds in Human, Rat, Mouse, and Dog Liver Microsomes
(§2) Experimental Method: A diluted solution containing 0.5 mg/mL liver microsomes with K-buffer and MgCl2 was prepared: Table 8
(§3) 358 µL of the diluted liver microsome solution prepared in Table 8 above was added to the pre-set wells of the incubation plate, labeled as the incubation plate. 2 µL of compound working solution (400 µM) (final concentration of DMSO ≤ 0.5%) was added. The incubation plate was placed in a 37°C constant temperature shaker and pre-incubated for 5-10 min. Then, 40 µL of UDPGA (20 mM) was added to the incubation plate to initiate the reaction, and timing started. At each predetermined time point (0, 5, 15, 60 min), 50 µL of samples were taken from the incubation plate and added to the precipitation plate containing 200 µL of internal standard. Samples were mixed thoroughly, centrifuged at 4°C and 5000 rpm for 10 minutes. The supernatant after centrifugation was added to pre-added ultrapure water at an appropriate ratio, mixed thoroughly on a shaker at room temperature, and subjected to LC-MS/MS analysis.
(§4) Data processing: The peak areas of the analyte and the internal standard in samples were measured at different time points. The peak area ratio of the analyte to the internal standard at non-zero time points compared to the peak area ratio of the analyte to the internal standard in the 0 min sample was used to calculate the remaining percentage of the parent drug.

In another data set the test system is SW620. Briefly: Cell proliferation experiment (CellTiter-Glo). Type of data set: cell-based. The settings on record: read-out: IC50(nM) SW620. (In general: In ATP-based viability assays light output follows the ATP content of the culture.)
Data set [3] in a line: in vitro. The settings on record: rat, microsomes.
A short description of data set [4]: in vitro. To be noted: mouse, microsomes.
The test system of another data set is H358. Nature of the data set: Cell proliferation experiment (CellTiter-Glo). Type of data set: cell-based. The settings on record: Homo sapiens, NCI-H358; H358, KRAS mutation type G12C; 96 h incubation.
In data set [5] the target is T1, KRAS G12D. Nature of the data set: cell-based. The settings on record: AGS.
The next data set deals with AGS. Briefly: Cell proliferation experiment (CellTiter-Glo). Type of data set: cell-based. To be noted: read-out: IC50(nM) AGS.
The nature of data set [6]: Phase II metabolic stability in liver microsomes (UDPGA). To be noted: 0.5 mg/mL liver microsomes, Alamethicin. Type of data set: in vitro ADME. The method, then:
as §1, §2, §3, §4
A general note: Microsomes from liver hold many membrane-bound enzymes, among them those of drug oxidation.

Data set [7] is described as follows: in vitro. To be noted: dog, microsomes.
The nature of data set [8]: in vitro. To be noted: human, microsomes.
The nature of data set [9]: PK study in ICR mice (whole blood). In kind it is in vivo. The settings on record: Female ICR mice, IV 1 mg/kg. On the procedure: Example 8 PK Study of Compound in ICR Mice (whole blood)
The compound was mixed with the vehicle (10% DMSO / 5% Solutol HS 15 / 85% saline), vortexed, and sonicated to prepare a clear solution at 0.2 mg/mL. Female ICR mice aged 6 to 7 weeks (non-fasted) were intravenously administered the compound. Whole blood was collected at specified time points. Drug concentration was analyzed by LC-MS/MS, and pharmacokinetic parameters were calculated using Phoenix WinNonlin software (Pharsight Corporation, USA). Table 11 Mouse PK Data for Intravenous Compound Monotherapy

A further data set deals with PK59. Nature of the data set: Cell proliferation experiment (CellTiter-Glo). The settings on record: PK-59; PK59, KRAS mutation type G12D; 96 h incubation. In kind it is cell-based.
The nature of data set [10]: Metabolic stability in liver microsomes (NADPH).
Data set [11] is described as follows: Metabolic stability in liver microsomes (NADPH). This is another data set of the same source.
The nature of data set [12]: Metabolic stability in liver microsomes (NADPH). The source holds these as a separate data set.
Data set [13] can be described thus: Metabolic stability in liver microsomes (NADPH). The source holds these as a separate data set.

Like-named read-outs stand apart in the source and are kept apart here.

T1 sequence (P01116 1-188 isoform P01116-2 G12D): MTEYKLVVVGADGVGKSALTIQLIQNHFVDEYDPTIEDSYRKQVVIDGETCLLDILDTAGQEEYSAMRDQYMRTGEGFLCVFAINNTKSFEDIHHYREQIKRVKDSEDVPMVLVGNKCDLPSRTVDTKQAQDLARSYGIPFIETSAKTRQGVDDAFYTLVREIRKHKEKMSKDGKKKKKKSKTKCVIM

Take `CCc1c(F)ccc2cc(O)cc(-c3ncc4c(N5CCC[C@@](C)(O)C5)nc(OCC5(CN6CCC(COc7ccc(-c8cn([C@H](C(=O)N9C[C@H](O)C[C@H]9C(=O)N[C@@H](C)c9ccc(-c%10scnc%10C)cc9)C(C)C)nn8)cc7)CC6)CC5)nc4c3F)c12` [Compound 69]: the DC50 at KRAS G12D [1] is 25 nM. Further, in data set [2], the “60 minutes remaining percentage % Human” value is 98.4%. In addition, the “metabolism by UGT in human liver microsomes” value in data set [2] is on record as “not metabolized or are minimally metabolized”. Moreover, the IC50 amounted to 34 nM with SW620 (Homo sapiens, SW-620, 96 h); 42 nM in the data set with H358; 14 nM in the data set on AGS (Homo sapiens, AGS, 96 h). Also, the microsomal CLint stood at 4.6 µL/min/mg in “in vitro [3]”, 7.9 µL/min/mg in “in vitro [4]”, 16.4 µL/min/mg in the data set “in vitro [7]” and 9.8 µL/min/mg in the data set “in vitro [8]”. In addition, the Dmax on KRAS G12D [5] was found to be 95%. In [6], the “60 minutes remaining percentage % Dog” value was found to be 90.6%. Also, the “60 minutes remaining percentage % Mouse” value in [6] was 92%. Also, the “60 minutes remaining percentage % Rat” value in data set [6] is reported as 99%.

`CCc1c(F)ccc2cc(O)cc(-c3ncc4c(N5CCC[C@@](C)(O)C5)nc(OCC5(CN6CCC7(CC6)CC(c6cn([C@H](C(=O)N8C[C@H](O)C[C@H]8C(=O)N[C@@H](C)c8ccc(-c9scnc9C)cc8)C(C)C)nn6)C7)CC5)nc4c3F)c12` [Compound 71] came in with a DC50 at KRAS G12D [1] of 20 nM. Moreover, the “60 minutes remaining percentage % Human” value in [2] is 94.6%. In data set [2], the “metabolism by UGT in human liver microsomes” value is “not metabolized or are minimally metabolized”. Besides, the IC50 in the data set with SW620 (Homo sapiens, SW-620, 96 h) was found to be 85 nM; with H358, 39 nM; in the data set with AGS (Homo sapiens, AGS, 96 h), 18 nM. For the same compound, in data set [9], the “Cl_obs” value is recorded as 16.3 mL/min/kg. Also, the “Vss_obs” value in data set [9] is recorded as 1.45 L/kg. For the same compound, the AUC(0-t) in data set [9] (mouse) is 1030 ng·h/mL. For the same compound, the half-life in data set [9] (mouse) was 6.08 h. Moreover, the C0 in data set [9] (mouse, read-out: C0) worked out at 5560 ng/mL. Moreover, the microsomal CLint in “in vitro [3]” turned out to be 1.1 µL/min/mg; in the data set “in vitro [4]” it was 9.8 µL/min/mg; in the data set “in vitro [7]”, 6.5 µL/min/mg; in the data set “in vitro [8]” it was 5.9 µL/min/mg. Also, the Dmax on KRAS G12D [5] was found to be 95%. In data set [6], the “60 minutes remaining percentage % Dog” value stood at 108%. In data set [6], the “60 minutes remaining percentage % Mouse” value was 93%. Moreover, the “60 minutes remaining percentage % Rat” value in data set [6] amounted to 75.4%.

On to `CCc1c(F)ccc2cc(O)cc(-c3ncc4c(N5CCC[C@@](C)(O)C5)nc(OCC5(CN6CCC(Oc7ccc(-c8cn([C@H](C(=O)N9C[C@H](O)C[C@H]9C(=O)N[C@@H](C)c9ccc(-c%10scnc%10C)cc9)C(C)C)nn8)nc7)CC6)CC5)nc4c3F)c12` [Compound 117], for which the IC50 turned out to be 18.5 nM in the data set on PK59; 47 nM in the data set on SW620 (Homo sapiens, SW-620, 96 h); 13 nM in the data set with AGS (Homo sapiens, AGS, 96 h). The compound further had a DC50 at KRAS G12D [1] of 7.5 nM. In addition, the microsomal CLint in the data set “in vitro [3]” was 11.3 µL/min/mg; in “in vitro [4]”, 10.1 µL/min/mg; in “in vitro [7]” it was 6.6 µL/min/mg; in the data set “in vitro [8]” it was 8.8 µL/min/mg. At KRAS G12D [5], this compound returned a Dmax of 95%.

`C=C1CN2[C@H](COCc3ccc(-c4cn([C@H](C(=O)N5C[C@H](O)C[C@H]5C(=O)N[C@@H](C)c5ccc(-c6scnc6C)cc5)C(C)C)nn4)cc3)CC[C@@]2(COc2nc(N3CCC[C@@](C)(O)C3)c3cnc(-c4cc(O)cc5ccc(F)c(CC)c45)c(F)c3n2)C1` [Compound 122] yielded a DC50 at KRAS G12D [1] of 22 nM. For the same compound, the “60 minutes remaining percentage % Human” value in data set [2] was 76.9%. The IC50 with SW620 (Homo sapiens, SW-620, 96 h) amounted to 87 nM; in the data set with AGS (Homo sapiens, AGS, 96 h), 28 nM. In addition, the microsomal CLint in the data set “in vitro [3]” is 8.5 µL/min/mg; in the data set “in vitro [4]” it was 24.8 µL/min/mg; in “in vitro [7]”, 53 µL/min/mg; in “in vitro [8]” it was 46.4 µL/min/mg. In addition, the Dmax on KRAS G12D [5] was 95%. The “60 minutes remaining percentage % Dog” value in data set [6] was 99.4%. In data set [6], the “60 minutes remaining percentage % Mouse” value turned out to be 105%. For the same compound, in data set [6], the “60 minutes remaining percentage % Rat” value was determined as 96.5%.

`C=C1CN2[C@H](COC(=O)N3CCC(Cc4cn([C@H](C(=O)N5C[C@H](O)C[C@H]5C(=O)N[C@@H](C)c5ccc(-c6scnc6C)cc5)C(C)C)nn4)CC3)CC[C@@]2(COc2nc(N3CCC[C@@](C)(O)C3)c3cnc(-c4cc(O)cc5ccc(F)c(CC)c45)c(F)c3n2)C1` [Compound 141, ((3S,7aS)-7a-(((7-(8-ethyl-7-fluoro-3-hydroxynaphthalen-1-yl)-8-fluoro-4-((R)-3-hydroxy-3-methylpiperidin-1-yl)pyrido[4,3-d]pyrimidin-2-yl)oxy)methyl)-6-methylenehexahydro-1H-pyrrolizin-3-yl)methyl 4-((1-((S)-1-((2S,4R)-4-hydroxy-2-(((S)-1-(4-(4-methylthiazol-5-yl)phenyl)ethyl)carbamoyl)pyrrolidin-1-yl)-3-methyl-1-oxobutan-2-yl)-1H-1,2,3-triazol-4-yl)methyl)piperidine-1-carboxylate]: the microsomal CLint at 1 µM in data set [10] (human, liver microsomes) is 21.2 µL/min/mg; in data set [11] (rat, liver microsomes), 3.9 µL/min/mg; in data set [12] (mouse, liver microsomes) it was 12.1 µL/min/mg; in [13] (dog, liver microsomes) it was 12.9 µL/min/mg. In addition, the IC50 with SW620 (Homo sapiens, SW-620, 96 h) was found to be 250 nM; with AGS (Homo sapiens, AGS, 96 h), 31 nM.

As to `CCc1c(F)ccc2cc(O)cc(-c3ncc4c(N5CCC[C@@](C)(O)C5)nc(OCC5(CN6CCC(Oc7ccc(-c8cn([C@H](C(=O)N9C[C@H](O)C[C@H]9C(=O)N[C@@H](CO)c9ccc(-c%10ccnn%10CC)cc9)C(C)C)nn8)cn7)CC6)CC5)nc4c3F)c12` [Compound 160], the IC50 stood at 19.5 nM in the data set with PK59; 88 nM in the data set with SW620 (Homo sapiens, SW-620, 96 h); 17 nM in the data set on H358; 14 nM with AGS (Homo sapiens, AGS, 96 h). This compound also showed a DC50 on KRAS G12D [1] of 2 nM. Also, at KRAS G12D [5], the Dmax came out at 95%.

Consider “((7-(8-ethyl-7-fluoro-3-hydroxynaphthalen-1-yl)-8-fluoro-4-(R)-3-hydroxy-3-methylpiperidin-1-yl)pyrido[4,3-d]pyrimidin-2-yl)oxy)methyl)-6-methylenehexahydro-1H-pyrrolizin-3-yl)methyl 2-(1-(S)-1-(2S,4R)-4-hydroxy-2-(S)-1-(4-(4-methylthiazol-5-yl)phenyl)ethylcarbamoyl)pyrrolidi n-1-yl)-3-methyl-1-oxobutan-2-yl)-1H-1,2,3-triazol-4-yl)-7-azaspiro[3.5]nonane-7-carboxylate [Compound 127]”, for which the “The in vitro intrinsic clearance in liver microsomes (CLint, in vitro, µL/min/mg protein) Human” value in data set [10] (Human, 0.5 mg/mL liver microsomes, NADPH, 37°C) is on record as 52.8 µL/min/mg protein. Also, the figures for the IC50 with SW620 and in the data set with AGS were 223 nM and 47 nM, respectively. In addition, the “The in vitro intrinsic clearance in liver microsomes (CLint, in vitro, µL/min/mg protein) Rat” value in data set [11] (Rat, 0.5 mg/mL liver microsomes, NADPH, 37°C) worked out at 15.6 µL/min/mg protein. The “The in vitro intrinsic clearance in liver microsomes (CLint, in vitro, µL/min/mg protein) Mouse” value in data set [12] (Mouse, 0.5 mg/mL liver microsomes, NADPH, 37°C) is listed as 42.4 µL/min/mg protein. For the same compound, the “The in vitro intrinsic clearance in liver microsomes (CLint, in vitro, µL/min/mg protein) Dog” value in data set [13] (Dog, 0.5 mg/mL liver microsomes, NADPH, 37°C) is on record as 31.5 µL/min/mg protein.

Broadly, the IC50 is the concentration at which inhibition is half-maximal. In general, microsomal CLint refers to a measure of how fast metabolising enzymes remove a compound, apart from limits set by blood flow. A higher microsomal CLint goes with rapid turnover. As a reminder, the AUC(0-t) is the area under the concentration-time curve up to a stated or last time point. A high value points to more exposure. One may read the half-life as the time needed for the level to fall by half in the phase considered. High values mean slow loss, low ones fast loss.
